Test results published in US20050085447A1, “Pyrido[3,4-d]pyrimidine derivatives as matrix metalloproteinase-13 inhibitors” (Warner-Lambert Company LLC, priority 2003, published 2005).

Columns and labels:
[1] = biological target: T1, MMP-14 catalytic domain (Homo sapiens, UniProt P50281); assay: Thiopeptolide substrate hydrolysis inhibition assay, MMP-14 catalytic domain; assay type: biochemical; conditions: read-out: MMP-14CD IC50
T1 construct: MMP-14 catalytic domain, and MMP-17 catalytic domain
From the text: (§1) The assay methods of Biological Examples 1-4 measure the amount by which a test compound reduces the hydrolysis of a thiopeptolide substrate catalyzed by a matrix metalloproteinase enzyme or catalytic domain thereof. It has been shown previously by Ye Qi-Zhuang, Hupe D., and Johnson L. (Current Medicinal Chemistry, 1996;3:407-418) that inhibitor activity against a catalytic domain of an MMP is predictive of the inhibitor activity against the respective full-length MMP enzyme. The methods described below for the inhibition of MMP-13 may also be adapted and used to determine the ability of the compounds of Formula I to inhibit other matrix metalloproteases such as MMP-1, MMP-2, MMP-3, MMP-7, MMP-8, MMP-9, MMP-12, MMP-14, MMP-17, and the like.
(§2) Thiopeptolide substrates show virtually no decomposition or hydrolysis at or below neutral pH in the absence of a matrix metalloproteinase enzyme. A typical thiopeptolide substrate commonly utilized for assays is Ac-Pro-Leu-Gly-thioester-Leu-Leu-Gly-OEt. A 100 μL assay mixture will contain 50 mM of N-2-hydroxyethylpiperazine-N′-2-ethanesulfonic acid buffer (“HEPES,” pH 7.0), 10 mM CaCl2, 100 μM thiopeptolide substrate, and 1 mM 5,5′-dithio-bis-(2-nitro-benzoic acid) (DTNB). […] The change in absorbance at 405 nm is monitored on a Thermo Max microplate reader (molecular Devices, Menlo Park, Calif.) at room temperature (22° C.). The calculation of the amount of hydrolysis of the thiopeptolide substrate is based on E412=13600 M^−1 cm^−1 for the DTNB-derived product 3-carboxy-4-nitrothiophenoxide. Assays are carried out with and without matrix metalloproteinase inhibitor compounds, and the amount of hydrolysis is compared for a determination of inhibitory activity of the test compounds.
(§3) Test compounds were evaluated at various concentrations in order to determine their respective IC50 values, the micromolar concentration of compound required to cause a 50% inhibition of catalytic activity of the respective enzyme.
(§4) Some representative compounds of Formula I have been evaluated for their ability to inhibit MMP-13, MMP-1FL, MMP-3CD, MMP-7FL, MMP-8FL, MMP-9FL, MMP-12CD, MMP-14CD, and/or MMP-17CD, wherein FL means full-length enzyme and CD means a catalytic domain of the full-length enzyme. Test compounds can be evaluated at various concentrations in order to determine their respective IC50 values, the micromolar concentration of compound required to cause a 50% inhibition of the hydrolytic activity of the respective enzyme.
(§5) Certain compounds of Formula I have also been assayed with MMP-1 full-length, MMP-3 catalytic domain, MMP-7 full-length, MMP-8 full-length, MMP-9 full-length, MMP-12 catalytic domain, MMP-14 catalytic domain, and MMP-17 catalytic domain. […] In Biological Table 2, the compound example numbers for the Compound Examples are indicated in the column labelled “Ex. No.”

[2] = biological target: T2, MMP-12 catalytic domain (Homo sapiens, UniProt P39900); assay: Thiopeptolide substrate hydrolysis inhibition assay, MMP-12 catalytic domain; assay type: biochemical; conditions: read-out: MMP-12CD IC50
T2 construct: MMP-9 full-length, MMP-12 catalytic domain, MMP-14 catalytic domain
From the text: as §1, §2, §3, §4, §5

[3] = biological target: T3, MMP-3 catalytic domain (Homo sapiens, UniProt P08254); assay: Thiopeptolide substrate hydrolysis inhibition assay, MMP-3 catalytic domain; assay type: biochemical; conditions: MES buffer pH 6.0, read-out: MMP-3CD IC50
T3 construct: MMP-1 full-length, MMP-3 catalytic domain, MMP-7 full-length
From the text: as §1, §2, §3
It should be appreciated that the assay buffer used with MMP-3CD was 50 mM N-morpholinoethane sulfonate (“MES”) at pH 6.0 rather than the HEPES buffer at pH 7.0 described above.
as §4, §5

[4] = biological target: MMP-13 catalytic domain (Homo sapiens, UniProt P45452); assay: Thiopeptolide substrate hydrolysis inhibition assay, MMP-13 catalytic domain; assay type: biochemical
From the text: The methods described below for the inhibition of MMP-13 may also be adapted and used to determine the ability of the compounds of Formula I to inhibit other matrix metalloproteases such as MMP-1, MMP-2, MMP-3, MMP-7, MMP-8, MMP-9, MMP-12, MMP-14, MMP-17, and the like.
Thiopeptolide substrates show virtually no decomposition or hydrolysis at or below neutral pH in the absence of a matrix metalloproteinase enzyme. A typical thiopeptolide substrate commonly utilized for assays is Ac-Pro-Leu-Gly-thioester-Leu-Leu-Gly-OEt. A 100 μL assay mixture will contain 50 mM of N-2-hydroxyethylpiperazine-N′-2-ethanesulfonic acid buffer (“HEPES,” pH 7.0), 10 mM CaCl2, 100 μM thiopeptolide substrate, and 1 mM 5,5′-dithio-bis-(2-nitro-benzoic acid) (DTNB). […] Assays are carried out with and without matrix metalloproteinase inhibitor compounds, and the amount of hydrolysis is compared for a determination of inhibitory activity of the test compounds.

[5] = biological target: T4, MMP-17 catalytic domain (Homo sapiens, UniProt Q9ULZ9); assay: Thiopeptolide substrate hydrolysis inhibition assay, MMP-17 catalytic domain; assay type: biochemical; conditions: read-out: MMP-17 CD IC50
T4 construct: MMP-14 catalytic domain, and MMP-17 catalytic domain
T4 sequence (Q9ULZ9 126-295 limits assumed): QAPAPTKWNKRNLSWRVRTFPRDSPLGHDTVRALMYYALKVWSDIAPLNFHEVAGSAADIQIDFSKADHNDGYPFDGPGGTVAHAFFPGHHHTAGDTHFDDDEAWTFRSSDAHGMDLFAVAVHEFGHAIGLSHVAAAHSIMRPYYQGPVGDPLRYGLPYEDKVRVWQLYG
From the text: as §1, §2, §3, §4, §5

[6] = Pharmacokinetics in Sprague-Dawley rats (single IV or oral dose); assay type: in vivo, rat; conditions: rat, blood, Sprague-Dawley rats, single 5 mg/kg intravenous dose
From the text: For comparison purposes, a reference compound was separately characterized according to its pharmacokinetics properties except AUC in a similar manner. The reference compound (“Reference Compound 1”) was the compound of Example 188 of PCT International Patent Application Publication number WO 02/064572 A1, which is also described in PCT International Patent Application Publication number WO 02/064080 A2 in Table IVb on page 76, 5th species from the top. […] Reference Compound 1 is named 4-[6-(4-methoxy-benzylcarbamoyl)- 1 -methyl-2,4-dioxo- 1,4-dihydro-2H-pyrido[3,4-d]pyrimidin-3-ylmethyl]-benzoic acid, and has the structure drawn below: [drawing 98]

T2 sequence (P39900 106-263 limits assumed): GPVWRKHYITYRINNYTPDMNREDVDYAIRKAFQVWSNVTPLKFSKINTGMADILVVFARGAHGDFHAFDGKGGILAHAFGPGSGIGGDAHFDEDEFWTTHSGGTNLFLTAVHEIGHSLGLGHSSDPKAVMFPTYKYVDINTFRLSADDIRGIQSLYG
T3 sequence (P08254 100-272 limits assumed): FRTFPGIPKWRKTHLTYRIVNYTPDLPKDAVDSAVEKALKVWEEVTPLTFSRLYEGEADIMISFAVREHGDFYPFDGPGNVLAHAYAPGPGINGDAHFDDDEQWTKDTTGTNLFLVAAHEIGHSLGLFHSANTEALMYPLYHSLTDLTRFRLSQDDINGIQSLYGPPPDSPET

Q: With `CSc1ccc(CNC(=O)c2cc3c(=O)n(Cc4ccc(C(=O)O)cc4)cnc3cn2)cc1` [Compound Example 7, 4-[6-(4-methylsulfanyl-benzylcarbamoyl)-4-oxo-4H-pyrido[3,4-d]pyrimidin-3-ylmethyl]-benzoic acid] as the molecule, how does the IC50 [1] read?
A: The IC50 was over 30 µM.

Q: What about the IC50 [2] of the same molecule?
A: The IC50 was 14 µM.

Q: What about the IC50 [3] of the same molecule?
A: The IC50 was over 10 µM.

Q: What about the IC50 [4] of the same molecule?
A: Its IC50 is 0.011 µM.

Q: What about the IC50 [5] of the same molecule?
A: Its IC50 is over 100 µM.

Q: Which clearance ([6]; read-out: IV CL) does the source give for `COc1ccc(CNC(=O)c2cc3c(=O)n(Cc4ccc(C(=O)O)cc4)c(=O)n(C)c3cn2)cc1` [Reference Compound 1, 4-[6-(4-methoxy-benzylcarbamoyl)-1-methyl-2,4-dioxo-1,4-dihydro-2H-pyrido[3,4-d]pyrimidin-3-ylmethyl]-benzoic acid, reference compound] here?
A: Its clearance is 48.9 mL/min/kg.

Q: And the half-life ([6]; read-out: IV T1/2 (converted))?
A: The half-life was 36 min.

Q: For `O=C(O)c1ccc(Cn2cnc3cnc(C(=O)NCc4ccccc4)cc3c2=O)cc1` [Compound Example 9], which IC50 [1] is on record?
A: The IC50 was over 100 µM.

Q: And the IC50 [2]?
A: Its IC50 is over 30 µM.

Q: What about the IC50 [3] of the same molecule?
A: The IC50 was over 30 µM.

Q: And the IC50 [4]?
A: Its IC50 is 0.02 µM.

Q: And the IC50 [5]?
A: The IC50 was over 100 µM.

Q: What does the source list for `O=C(O)c1ccc(Cn2cnc3cnc(C(=O)NCc4ccc(F)cc4)cc3c2=O)cc1` [Compound Example 8, 4-[6-(4-fluoro-benzylcarbamoyl)-4-oxo-4H-pyrido[3,4-d]pyrimidin-3-ylmethyl]-benzoic acid]?
A: IC50 [1]: > 100 µM; IC50 [2]: > 30 µM; IC50 [3]: 33 µM; IC50 [4]: 0.0043 µM; IC50 [5]: > 100 µM
